Source: patent US20110112135A1, “Imidazo [1,2-A] Pyridine Compounds” (priority 2007, published 2011)

Experiments:
human LXRβ = biological target: T1, human LXRβ (Homo sapiens, UniProt P55055); test: Ligand-binding test procedure for human LXRβ (3H T0901317 tracer, flash plates); conditions: biotinylated hLXRβ from E. coli extract; tracer 3H T0901317
T1 construct: biotin (biotinylated); made in house; host or cells: E. coli (crude extract)
T1 sequence (P55055 1-460): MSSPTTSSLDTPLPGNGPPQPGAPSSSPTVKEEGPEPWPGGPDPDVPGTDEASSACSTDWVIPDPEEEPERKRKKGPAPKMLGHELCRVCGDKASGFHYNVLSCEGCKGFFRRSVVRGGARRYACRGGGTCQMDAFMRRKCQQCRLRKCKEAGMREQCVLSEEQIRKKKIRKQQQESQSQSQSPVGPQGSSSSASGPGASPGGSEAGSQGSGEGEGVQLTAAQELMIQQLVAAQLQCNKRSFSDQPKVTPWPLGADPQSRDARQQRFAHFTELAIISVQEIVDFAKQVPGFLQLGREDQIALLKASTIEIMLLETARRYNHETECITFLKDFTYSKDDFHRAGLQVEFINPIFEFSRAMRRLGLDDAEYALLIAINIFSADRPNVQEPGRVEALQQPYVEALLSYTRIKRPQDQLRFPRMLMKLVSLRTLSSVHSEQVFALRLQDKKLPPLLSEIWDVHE
In short: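 Biotinylated hLXRβ from E. coli extract was captured on streptavidin flash plates (Bmax ~4000 cpm) at 4 °C overnight. Test ligand dilutions were mixed with 5 nM [3H]T0901317 tracer solution and incubated on the plates overnight at 4 °C; bound radioactivity was counted after washing.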

ABCA1 gene = test: Quantitative analysis of ABCA1 gene regulation in THP-1 cells (real-time PCR); type: cell-based, human; conditions: Gene regulation by LXR (Human), differentiated THP-1 cells, 18 hrs; for EC50: ABCA1 mRNA, read-out: EC50 ABCA1; for Emax: LXR agonist reference at 1.0 uM as positive control, read-out: Agonism ABCA1
Experimental: III. Quantitative Analysis of ABCA1 Gene Regulation in THP-1 Cells. The compounds of formula (I) effect on the regulation of the ABCA1 gene was evaluated using the following procedure. Materials and Methods Cell culture: The THP-1 monocytic cell line (ATCC #TIB-202) was obtained from American Type Culture Collection (Manassas, Va.) and cultured in RPMI 1640 medium (Gibco, Carlsbad, Calif.) containing 10% FBS, 2 mM L-glutamine, and 55 uM beta-Mercaptoethanol (BME). […] Louis, Mo.) for three days to induce differentiation into adherent macrophages. Differentiated THP-1 cells were treated with test compounds or ligands dissolved in DMSO (Sigma, D-8779) in culture medium lacking phorbal ester. […] Dose response effects were measured in duplicate, in the range of 0.001 to 30 micromolar concentrations and treated cells were incubated for an additional 18 hrs prior to RNA isolation. Unstimulated cells treated with vehicle were included as negative controls on each plate. […] L., J. Med. Chem. (2000), 45:1963-1966.). Results of antagonist analysis are expressed as % antagonism and IC50 (in μM). RNA isolation and quantitation: Total cellular RNA was isolated from treated cells cultured in 96-well plates using PrepStation 6100 (Applied Biosystems, Foster City, Calif.), according to the manufacturer's recommendations. RNA was resuspended in ribonuclease-free water and stored at -70° C. prior to analysis. RNA concentrations were quantitated with RiboGreen test procedure, #R-11490 (Molecular Probes, Eugene, Oreg.). Gene expression analysis: Gene-specific mRNA quantitation was performed by real-time PCR with the Perkin Elmer Corp. chemistry on an ABI Prism 7700 Sequence detection system (Applied Biosystems, Foster City, Calif.) according to the manufacturer's instructions. Samples (50-100 ng) of total RNA were assayed in duplicate or triplicate in 50 ul reactions using one-step RT-PCR and the standard curve method to estimate specific mRNA concentrations. Sequences of gene-specific primer and probe sets were designed with Primer Express Software (Applied Biosystems, Foster City, Calif.). […] Relative levels of ABCA1 mRNA are normalized using GAPDH mRNA or 18S rRNA probe/primer sets purchased commercially (Applied Biosystems, Foster City, Calif.). Statistics: Mean, standard deviation and statistical significance of duplicate evaluations of RNA samples were assessed using ANOVA, one-way analysis of variance using SAS analysis. Reagents: -GAPDH Probe and Primers-Taqman GAPDH Control Reagents 402869 or 4310884E 18S Ribosomal RNA-Taqman 18S Control Reagents 4308329 […] Qiagen Quantitect probe RT-PCR 204443.

human LXRα = biological target: T2, human LXRα (Homo sapiens, UniProt Q13133); test: Ligand-binding test procedure for human LXRα (3H T0901317 tracer, flash plates); conditions: biotinylated hLXRα from E. coli extract; tracer 3H T0901317
T2 construct: biotin (biotinylated); made in house; host or cells: E. coli (crude extract)
T2 sequence (Q13133 1-447): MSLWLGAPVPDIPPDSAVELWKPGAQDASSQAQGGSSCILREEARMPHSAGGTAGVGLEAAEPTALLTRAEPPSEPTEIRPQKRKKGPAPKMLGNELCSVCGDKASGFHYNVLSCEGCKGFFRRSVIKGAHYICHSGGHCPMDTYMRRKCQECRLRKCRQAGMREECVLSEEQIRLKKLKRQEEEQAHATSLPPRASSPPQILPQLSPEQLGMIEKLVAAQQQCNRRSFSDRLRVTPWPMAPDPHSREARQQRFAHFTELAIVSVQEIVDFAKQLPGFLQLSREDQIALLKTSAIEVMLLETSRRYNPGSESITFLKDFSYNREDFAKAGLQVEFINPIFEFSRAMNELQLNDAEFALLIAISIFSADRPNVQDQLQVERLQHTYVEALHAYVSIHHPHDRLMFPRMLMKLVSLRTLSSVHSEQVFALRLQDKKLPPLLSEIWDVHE
In short: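 Biotinylated hLXRα from E. coli extract (50 mM Tris) captured on streptavidin flash plates overnight at 4 °C. Compound dilution series mixed with 5 nM [3H]T0901317 (concentration before mixing), incubated overnight at 4 °C; wells aspirated, washed and remaining radioactivity counted.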

| Structure (SMILES) | IC50 (human LXRβ) | EC50 (ABCA1 gene) | Emax (ABCA1 gene) | IC50 (human LXRα) |
| --- | --- | --- | --- | --- |
| CS(=O)(=O)c1cccc(Oc2cccc(-c3c(Cn4ccnc4)nc4c(C(F)(F)F)cccn34)c2)c1 [Example 129, 2-(1H-imidazol-1-ylmethyl)-3-{3-[3-(methylsulfonyl)phenoxy]phenyl}-8-(trifluoromethyl)imidazo[1,2-a]pyridine] | 30 nM | 135 nM | 103% | 370 nM |
| CC(C)c1nc2c(Cl)cccn2c1-c1cccc(Oc2cccc(S(=O)(=O)C(C)C)c2)c1 [Example 68, 8-chloro-2-isopropyl-3-{3-[3-(isopropylsulfonyl)phenoxy]phenyl}imidazo[1,2-a]pyridine] | 7.1 nM | 1260 nM | 93% | 406 nM |
| CCc1nc2c(Cl)cccn2c1-c1cccc(Oc2cccc(S(=O)(=O)C(C)C)c2)c1 [Example 65, 8-chloro-2-ethyl-3-{3-[3-(isopropylsulfonyl)phenoxy]phenyl}imidazo[1,2-a]pyridine] | 16.9 nM | 1290 nM | 113% | 315 nM |
| CCCCOCc1nc2c(C(F)(F)F)cccn2c1-c1ccc(Oc2cccc(S(C)(=O)=O)c2)cc1 [Example 128, 2-(butoxymethyl)-3-{4-[3-(methylsulfonyl)phenoxy]phenyl}-8-(trifluoromethyl)imidazo[1,2-a]pyridine] | 28 nM | 40 nM | 76% | 430 nM |
| CCc1nc2c(C(F)(F)F)cccn2c1-c1cccc(Oc2cccc(S(=O)(=O)CCCO)c2)c1 [Example 21] | 44 nM | 771 nM | 111% | 520 nM |
| CC(C)c1nc2c(C(F)(F)F)cccn2c1-c1cccc(Oc2cccc(S(=O)(=O)CCCO)c2)c1 [Example 61, 3-[(3-{3-[2-isopropyl-8-(trifluoromethyl)imidazo[1,2-a]pyridin-3-yl]phenoxy}phenyl)sulfonyl]propan-1-ol] | 19.8 nM | 1640 nM | 60% | 456 nM |
| CC(C)c1nc2c(C#N)cccn2c1-c1cc(Oc2cccc(S(=O)(=O)C(C)C)c2)ccc1Cl [Example 84, 3-{2-chloro-5-[3-(isopropylsulfonyl)phenoxy]phenyl}-2-isopropylimidazo[1,2-a]pyridine-8-carbonitrile] | 8.5 nM | 375 nM | 70% | 276 nM |
| CCc1nc2c(C(F)(F)F)cccn2c1-c1cccc(Oc2cccc(S(=O)(=O)CC)c2)c1 [Example 18, 2-ethyl-3-(3-(3-(ethylsulfonyl)phenoxy)phenyl)-8-(trifluoromethyl)imidazo[1,2-a]pyridine] | 14 nM | 110 nM | 118% | 321 nM |
| CCS(=O)(=O)c1cccc(Oc2cccc(-c3c(C(C)C)nc4c(C#N)cccn34)c2)c1 [Example 73, 3-{3-[3-(ethylsulfonyl)phenoxy]phenyl}-2-isopropylimidazo[1,2-a]pyridine-8-carbonitrile] | 36.5 nM | 2040 nM | 82% | 1880 nM |
| CCc1nc2c(C#N)cccn2c1-c1cccc(Oc2cccc(S(=O)(=O)C(C)C)c2)c1 [Example 71, 2-ethyl-3-{3-[3-(isopropylsulfonyl)phenoxy]phenyl}imidazo[1,2-a]pyridine-8-carbonitrile] | 37.2 nM | 1940 nM | 96% | 2430 nM |
| CC(C)c1nc2c(C#N)cccn2c1-c1cccc(Oc2cccc(S(=O)(=O)C(C)C)c2)c1 [Example 74, 2-isopropyl-3-{3-[3-(isopropylsulfonyl)phenoxy]phenyl}imidazo[1,2-a]pyridine-8-carbonitrile] | 24 nM | 560 nM | 97% | 1260 nM |
| CCc1nc2c(Cl)cccn2c1-c1cccc(Oc2cccc(S(C)(=O)=O)c2)c1 [Example 63, 8-chloro-2-ethyl-3-{3-[3-(methylsulfonyl)phenoxy]phenyl}imidazo[1,2-a]pyridine] | 17.3 nM | 304 nM | 96% | 642 nM |
| CCc1nc2c(C(F)(F)F)cccn2c1-c1cccc(Oc2cc(F)cc(S(C)(=O)=O)c2)c1 [Example 24, 2-ethyl-3-(3-(3-fluoro-5-(methylsulfonyl)phenoxy)phenyl)-8-(trifluoromethyl)imidazo[1,2-a]pyridine] | 51 nM | 147 nM | 76% | 636 nM |
| CCS(=O)(=O)c1cccc(Oc2cccc(-c3c(C(C)(C)C)nc4c(C#N)cccn34)c2)c1 [Example 79, 2-tert-butyl-3-{3-[3-(ethylsulfonyl)phenoxy]phenyl}imidazo[1,2-a]pyridine-8-carbonitrile] | 23.7 nM | 285 nM | 60% | 745 nM |
| CCCS(=O)(=O)c1cccc(Oc2cccc(-c3c(CC)nc4c(C(F)(F)F)cccn34)c2)c1 [Example 19, 2-ethyl-3-(3-(3-(propylsulfonyl)phenoxy)phenyl)-8-(trifluoromethyl)imidazo[1,2-a]pyridine] | 94 nM | 408 nM | 72% | 975 nM |
| CCc1nc2c(C#N)cccn2c1-c1cccc(Oc2cccc(S(=O)(=O)N(C)Cc3ccc(OC)cc3)c2)c1 [Example 46, 3-[3-(8-cyano-2-ethylimidazo[1,2-a]pyridin-3-yl)phenoxy]-N-(4-methoxybenzyl)-N-methylbenzenesulfonamide] | 15.4 nM | 359 nM | 92% | 64.9 nM |
| CC(C)c1nc2c(C#N)cccn2c1-c1cc(Oc2cccc(S(C)(=O)=O)c2)ccc1Cl [Example 82, 3-{2-chloro-5-[3-(methylsulfonyl)phenoxy]phenyl}-2-isopropylimidazo[1,2-a]pyridine-8-carbonitrile] | 11.5 nM | 290 nM | 70% | 309 nM |
| COc1ccccc1-c1nc2c(C(F)(F)F)cccn2c1-c1ccc(Oc2cccc(S(C)(=O)=O)c2)cc1 [Example 126, 2-(2-methoxyphenyl)-3-{4-[3-(methylsulfonyl)phenoxy]phenyl}-8-(trifluoromethyl)imidazo[1,2-a]pyridine] | 14 nM | 25 nM | 30% | 290 nM |
